# Results published in article PMC12736120, “First-in-Human Phase I Clinical Trial of SLC-391, a Novel and Selective AXL Inhibitor, in Patients with Advanced Solid Tumours” (Pharmaceuticals, 2025).
# Tests used:
# MER = settings: stated in the Introduction, no reference given; read-out: IC50 against MER; cited from earlier work
# AXL = settings: stated in the Introduction, no reference given; read-out: IC50 against AXL; cited from earlier work
# advanced solid tumours = assay: Preliminary efficacy, disease assessment by RECIST 1.1 / mRECIST; assay type: in vivo, human; settings: for best percent change in target lesion diameter (decrease): one subject
# Protocol: Disease assessments were performed according to RECIST 1.1 [20, 21] and included imaging and physical examination as appropriate for disease type and location. Disease assessments were completed at screening (within 30 days of C1D1) and every 3 cycles (±7 days) relative to C1D1 until objective disease progression, study drug discontinuation, or withdrawal of informed consent.
smiles,measurement,setting,value
"Nc1ncc(-c2cnn(C3CCNCC3)c2)cc1-c1nnc(CC2CC2)o1 [SLC-391, 3-(5-[cyclopropylmethyl]-1,3,4-oxadiazol-2-yl)-5-(1-[piperidin-4-yl]-1H-pyrazol-4-yl)-pyridin-2-amine]",IC50,MER,44 nM
same,IC50,AXL,9.6 nM
same,rate of stable disease,advanced solid tumours; 150 mg BID (3/6),50.0%
same,best overall response (BOR) of stable disease,advanced solid tumours; NSCLC,4/16
same,subjects with stable disease,advanced solid tumours; RECIST 1.1 or modified RECIST (mesothelioma),12 of 35 subjects
same,clinical benefit rate,"advanced solid tumours; all subjects (N = 35), monotherapy",34.3%
same,best overall response (BOR) of stable disease,advanced solid tumours; appendix adenocarcinoma,1/1
same,best overall response (BOR) of stable disease,advanced solid tumours; head and neck cancer,1/1
same,best overall response (BOR) of stable disease,advanced solid tumours; mammary adenocarcinoma,1/1
same,best overall response (BOR) of stable disease,advanced solid tumours; melanoma,1/1
same,best overall response (BOR) of stable disease,advanced solid tumours; mesothelioma,4/4
same,longest duration of stable disease,advanced solid tumours; monotherapy,318 days
same,patients with stable disease for more than half a year,"advanced solid tumours; monotherapy, all stage IV, pretreated",six
same,best percent change in target lesion diameter (decrease),"advanced solid tumours; 50 mg QD, at cycle 7",26.7%
same,best percent change in target lesion diameter (decrease),"advanced solid tumours; 110 mg BID, on day 275",22.2%
same,best percent change in target lesion diameter (decrease),"advanced solid tumours; 150 mg BID, at the end of treatment visit",8.9%
same,best percent change in target lesion diameter (decrease),"advanced solid tumours; 150 mg QD, at cycle 7",10.7%
